PubChem BioAssay AID256 (DTP/NCI, 2004)
Several values for one entry are separate records, joined by “and”; a condition that tells them apart may be missing. Identical values can stand only once. Inconclusive results and toxic doses are left out. Rule for the calls: active = survival T/C of 150% or more; inactive = T/C below 125% in these data.

System: CD2F1 mice, L1210 leukemia ip, survival T/C
Assay: NCI In Vivo Anticancer Drug Screen. Data for tumor model L1210 Leukemia (intraperitoneal) in CD2F1 (CDF1) mice
Conditions: higher = longer survival
How it was run: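 Mice carrying a transplanted tumor received test compound or vehicle alone. The value is the measurement in the treated group divided by that in the vehicle-treated control group.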

[1] = endpoint: mean survival time, dose: 100.0 mg/kg/injection, schedule: Q04DX002 (ip), vehicle: saline with Tween-80
[2] = endpoint: mean survival time, dose: 200.0 mg/kg/injection, schedule: Q04DX002 (ip), vehicle: saline with Tween-80
[3] = endpoint: mean survival time, dose: 50.0 mg/kg/injection, schedule: Q01DX009 (ip), vehicle: saline with Tween-80
[4] = endpoint: mean survival time, dose: 100.0 mg/kg/injection, schedule: Q01DX009 (ip), vehicle: saline with Tween-80
[5] = endpoint: mean survival time, dose: 200.0 mg/kg/injection, schedule: Q01DX009 (ip), vehicle: saline with Tween-80
[6] = endpoint: mean survival time, dose: 100.0 mg/kg/injection, schedule: Q04DX003 (ip), vehicle: saline
[7] = endpoint: mean survival time, dose: 100.0 mg/kg/injection, schedule: Q04DX003 (ip), vehicle: saline with Tween-80
[8] = endpoint: mean survival time, dose: 200.0 mg/kg/injection, schedule: Q04DX003 (ip), vehicle: saline with Tween-80
[9] = endpoint: mean survival time, dose: 400.0 mg/kg/injection, schedule: Q04DX003 (ip), vehicle: saline with Tween-80
[10] = endpoint: mean survival time, dose: 100.0 mg/kg/injection, schedule: Q01DX009 (ip), vehicle: saline

Measured: T/C

O.O.O=C(O)c1ccccc1C(=O)O.[NH-]C1CCCCC1[NH-].[Pt+2]
inactive: endpoint: mean survival time, dose: 3.13 mg/kg/injection, schedule: Q04DX003 (ip), vehicle: dextrose 109 % of control | endpoint: mean survival time, dose: 6.25 mg/kg/injection, schedule: Q04DX003 (ip), vehicle: dextrose 106 % of control | endpoint: mean survival time, dose: 25.0 mg/kg/injection, schedule: Q04DX003 (ip), vehicle: dextrose 106 % of control | endpoint: mean survival time, dose: 50.0 mg/kg/injection, schedule: Q04DX003 (ip), vehicle: dextrose 95 % of control

O=C1CCc2ccccc21 (tested in a mixture with another compound)
inactive: endpoint: mean survival time, dose: 50.0 mg/kg/injection, schedule: Q04DX002 (ip), vehicle: saline with Tween-80 96 % of control | [1] 101 % of control | [2] 96 % of control

CCOC(=O)c1cc2ccccc2oc1=O
inactive: endpoint: mean survival time, dose: 25.0 mg/kg/injection, schedule: Q01DX009 (ip), vehicle: saline with Tween-80 100 % of control | [3] 97 % of control | [4] 109 % of control

CS(=O)(=O)OC1CCS(=O)(=O)c2ccccc21 (configuration not stated)
inactive: endpoint: mean survival time, dose: 100.0 mg/kg/injection, schedule: Q01DX001 (ip), vehicle: carboxymethylcellulose (CMC) 97 % of control | endpoint: mean survival time, dose: 200.0 mg/kg/injection, schedule: Q01DX001 (ip), vehicle: carboxymethylcellulose (CMC) 97 % of control | endpoint: mean survival time, dose: 400.0 mg/kg/injection, schedule: Q01DX001 (ip), vehicle: carboxymethylcellulose (CMC) 97 % of control

O=C(CNC(=O)Nc1cccc(C(F)(F)F)c1)N/N=C/c1cccs1
inactive: [3] 88 % of control | [4] 96 % of control | [5] 92 % of control

C=CCN(CC=C)C(=O)OCC
inactive: [4] 97 % of control | [6] 97 % of control | [5] 96 % of control | endpoint: mean survival time, dose: 200.0 mg/kg/injection, schedule: Q04DX003 (ip), vehicle: saline 95 % of control | endpoint: mean survival time, dose: 400.0 mg/kg/injection, schedule: Q04DX003 (ip), vehicle: saline 101 % of control

CCOC(=O)Nc1cc(NC/C(CCc2ccccc2)=N/O)c([N+](=O)[O-])c(N)n1
inactive: endpoint: mean survival time, dose: 100.0 mg/kg/injection, schedule: Q01DX001 (ip), vehicle: Klucel (hydroxypropylcellulose) (HPC) 96 % of control | endpoint: mean survival time, dose: 200.0 mg/kg/injection, schedule: Q01DX001 (ip), vehicle: Klucel (hydroxypropylcellulose) (HPC) 91 % of control | endpoint: mean survival time, dose: 400.0 mg/kg/injection, schedule: Q01DX001 (ip), vehicle: Klucel (hydroxypropylcellulose) (HPC) 90 % of control

COc1ccc2cc(O)ccc2c1
inactive: [4] 96 % of control | [7] 104 % of control | [5] 98 % of control | [8] 113 % of control | endpoint: mean survival time, dose: 400.0 mg/kg/injection, schedule: Q01DX009 (ip), vehicle: saline with Tween-80 100 % of control | [9] 90 % of control

O=c1nc(N2CCCCCC2)ccn1C1OC(CO)C(O)C1O (configuration not stated)
inactive: endpoint: median survival time, dose: 12.5 mg/kg/injection, schedule: Q01DX005 (ip), vehicle: distilled water + Tween-80 101 % of control | endpoint: median survival time, dose: 25.0 mg/kg/injection, schedule: Q01DX005 (ip), vehicle: distilled water + Tween-80 107 % of control | endpoint: median survival time, dose: 50.0 mg/kg/injection, schedule: Q01DX005 (ip), vehicle: distilled water + Tween-80 98 % of control | endpoint: median survival time, dose: 100.0 mg/kg/injection, schedule: Q01DX005 (ip), vehicle: distilled water + Tween-80 104 % of control | endpoint: median survival time, dose: 200.0 mg/kg/injection, schedule: Q01DX005 (ip), vehicle: distilled water + Tween-80 106 % of control

N#CCCC(C#N)(c1cccnc1)N1CCOCC1 (configuration not stated)
inactive: endpoint: mean survival time, dose: 12.5 mg/kg/injection, schedule: Q01DX009 (ip), vehicle: Klucel (hydroxypropylcellulose) (HPC) 93 % of control | endpoint: mean survival time, dose: 25.0 mg/kg/injection, schedule: Q01DX009 (ip), vehicle: Klucel (hydroxypropylcellulose) (HPC) 97 % of control | endpoint: mean survival time, dose: 25.0 mg/kg/injection, schedule: Q04DX002 (ip), vehicle: saline with Tween-80 109 % of control

Cc1ccc(NC(=O)ON(C)C)cc1
inactive: endpoint: mean survival time, dose: 100.0 mg/kg/injection, schedule: Q04DX002 (ip), vehicle: other 102 % of control

NC(=S)N/N=C\c1nccc2c(C(F)(F)C(F)(F)C(F)(F)F)cccc12
inactive: [1] 93 % of control | [2] 96 % of control | endpoint: mean survival time, dose: 400.0 mg/kg/injection, schedule: Q04DX002 (ip), vehicle: saline with Tween-80 96 % of control

c1cc2c(cc1CNC1=NCCO1)OCO2
inactive: [7] 98 % of control | [8] 105 % of control | [9] 98 % of control

O=C1c2cc([N+](=O)[O-])ccc2-c2cc(Br)ccc21
inactive: [7] 99 % of control | [8] 91 % of control

CN(C)c1ccc(N=Nc2ccc([As](=O)(O)O)cc2)cc1
inactive: endpoint: mean survival time, dose: 6.25 mg/kg/injection, schedule: Q01DX009 (ip), vehicle: saline with Tween-80 91 % of control | endpoint: mean survival time, dose: 12.5 mg/kg/injection, schedule: Q01DX001 (ip), vehicle: saline with Tween-80 110 % of control | endpoint: mean survival time, dose: 12.5 mg/kg/injection, schedule: Q01DX009 (ip), vehicle: saline with Tween-80 89 % of control

NC(=O)C(F)(F)F
inactive: [10] 98 % of control | endpoint: mean survival time, dose: 200.0 mg/kg/injection, schedule: Q01DX009 (ip), vehicle: saline 98 % of control | endpoint: mean survival time, dose: 400.0 mg/kg/injection, schedule: Q01DX009 (ip), vehicle: saline 100 % of control

CC[PH+](CC)CC[S-].CC[PH+](CC)CC[S-].[Au+].[Au+]
inactive: endpoint: mean survival time, dose: 2.5 mg/kg/injection, schedule: Q01DX009 (ip), vehicle: Klucel (hydroxypropylcellulose) (HPC) 102 % of control and 107 % of control | endpoint: mean survival time, dose: 5.0 mg/kg/injection, schedule: Q01DX009 (ip), vehicle: Klucel (hydroxypropylcellulose) (HPC) 95 % of control and 106 % of control | endpoint: mean survival time, dose: 10.0 mg/kg/injection, schedule: Q01DX009 (ip), vehicle: Klucel (hydroxypropylcellulose) (HPC) 92 % of control and 109 % of control | endpoint: mean survival time, dose: 20.0 mg/kg/injection, schedule: Q01DX009 (ip), vehicle: Klucel (hydroxypropylcellulose) (HPC) 97 % of control and 109 % of control | endpoint: mean survival time, dose: 40.0 mg/kg/injection, schedule: Q01DX009 (ip), vehicle: Klucel (hydroxypropylcellulose) (HPC) 89 % of control | endpoint: mean survival time, dose: 80.0 mg/kg/injection, schedule: Q01DX009 (ip), vehicle: Klucel (hydroxypropylcellulose) (HPC) 101 % of control

COc1ccc(Cl)cc1Cn1ccnc1
inactive: endpoint: mean survival time, dose: 50.0 mg/kg/injection, schedule: Q01DX001 (ip), vehicle: saline 104 % of control | endpoint: mean survival time, dose: 50.0 mg/kg/injection, schedule: Q01DX009 (ip), vehicle: saline 115 % of control and 102 % of control | endpoint: mean survival time, dose: 50.0 mg/kg/injection, schedule: Q04DX003 (ip), vehicle: saline 107 % of control | endpoint: mean survival time, dose: 100.0 mg/kg/injection, schedule: Q01DX001 (ip), vehicle: saline 107 % of control | [10] 118 % of control and 107 % of control | endpoint: mean survival time, dose: 100.0 mg/kg/injection, schedule: Q04DX002 (ip), vehicle: saline 115 % of control and 100 % of control | [6] 115 % of control | endpoint: mean survival time, dose: 200.0 mg/kg/injection, schedule: Q04DX002 (ip), vehicle: saline 117 % of control and 109 % of control
